Measured values from the supplement of paper PMC10307832.

Tests used:
Test in all cases: relative viability (nuclei count vs DMSO), 5 days (fraction); higher = more cells survive
[1] = compound: CO[C@H]1C[C@@H]2CC[C@@H](C)[C@@](O)(O2)C(=O)C(=O)N2CCCC[C@H]2C(=O)O[C@H]([C@H](C)C[C@@H]2CC[C@@H](OCCO)[C@H](OC)C2)CC(=O)[C@H](C)/C=C(\C)[C@@H](O)[C@@H](OC)C(=O)[C@H](C)C[C@H](C)/C=C/C=C/C=C/1C [Everolimus] + CS(=O)(=O)N1CCN(Cc2cc3nc(-c4cccc5[nH]ncc45)nc(N4CCOCC4)c3s2)CC1 [Pictilisib] (partner 1 µM)
Outline: (§1)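 Nuclei were stained with Hoechst during a one-step fixation (final 0.05% Triton X-100, 1% formaldehyde, 1 ug/ml Hoechst) carried out 5 days after dosing, then counted on 4× images. The cells, lung cancer lines in 1536-well plates, had been dosed by pin tool the day after seeding with one drug alone or a fixed anchor-drug dose plus five library-drug doses (not always all listed) in √10 steps. Relative viability is the nuclei count in treated wells divided by that in vehicle wells, and each value is the median of duplicate plates.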

[2] = compound: CO[C@H]1C[C@@H]2CC[C@@H](C)[C@@](O)(O2)C(=O)C(=O)N2CCCC[C@H]2C(=O)O[C@H]([C@H](C)C[C@@H]2CC[C@@H](OCCO)[C@H](OC)C2)CC(=O)[C@H](C)/C=C(\C)[C@@H](O)[C@@H](OC)C(=O)[C@H](C)C[C@H](C)/C=C/C=C/C=C/1C [Everolimus] + C[C@@H](Oc1cc(-c2cnn(C3CCNCC3)c2)cnc1N)c1c(Cl)ccc(F)c1Cl [Crizotinib] (partner 1 µM)
Outline: as §1

[3] = compound: CO[C@H]1C[C@@H]2CC[C@@H](C)[C@@](O)(O2)C(=O)C(=O)N2CCCC[C@H]2C(=O)O[C@H]([C@H](C)C[C@@H]2CC[C@@H](OCCO)[C@H](OC)C2)CC(=O)[C@H](C)/C=C(\C)[C@@H](O)[C@@H](OC)C(=O)[C@H](C)C[C@H](C)/C=C/C=C/C=C/1C [Everolimus] + Cc1nc(Nc2ncc(C(=O)Nc3c(C)cccc3Cl)s2)cc(N2CCN(CCO)CC2)n1 [Dasatinib] (partner 0.075 µM)
Outline: as §1

[4] = compound: CO[C@H]1C[C@@H]2CC[C@@H](C)[C@@](O)(O2)C(=O)C(=O)N2CCCC[C@H]2C(=O)O[C@H]([C@H](C)C[C@@H]2CC[C@@H](OCCO)[C@H](OC)C2)CC(=O)[C@H](C)/C=C(\C)[C@@H](O)[C@@H](OC)C(=O)[C@H](C)C[C@H](C)/C=C/C=C/C=C/1C [Everolimus] + O=C(CCCCCCC(=O)Nc1ccccc1)NO [Vorinostat] (partner 1 µM)
Outline: as §1

Cell Line	relative viability ([1]; first compound 0.01 µM)	relative viability ([1]; first compound 0.03162 µM)	relative viability ([1]; first compound 0.1 µM)	relative viability ([1]; first compound 0.3162 µM)	relative viability ([1]; first compound 1 µM)	relative viability ([2]; first compound 0.01 µM)	relative viability ([2]; first compound 0.03162 µM)	relative viability ([2]; first compound 0.1 µM)	relative viability ([2]; first compound 0.3162 µM)	relative viability ([2]; first compound 1 µM)	relative viability ([3]; first compound 0.01 µM)	relative viability ([3]; first compound 0.03162 µM)	relative viability ([3]; first compound 0.1 µM)	relative viability ([3]; first compound 0.3162 µM)	relative viability ([3]; first compound 1 µM)	relative viability ([4]; first compound 0.01 µM)	relative viability ([4]; first compound 0.03162 µM)	relative viability ([4]; first compound 0.1 µM)	relative viability ([4]; first compound 0.3162 µM)	relative viability ([4]; first compound 1 µM)
LCLC-103H	0.512	0.459	0.471	0.479	0.466	1.1	0.943	1.03	0.841	0.818	0.404	0.305	0.35	0.319	0.322	0.747	0.755	0.734	0.712	0.617
LK-2	0.5		0.37	0.322	0.386	0.24		0.22	0.284	0.227	0.231		0.239	0.209	0.306	0.243	0.174	0.188	0.21	0.189
LOU-NH91	0.516	0.484	0.462	0.485	0.465	0.664	0.695	0.627	0.573	0.58	0.486	0.467	0.476	0.434	0.449	0.809	0.653	0.744	0.727	0.764
LU99A	0.213	0.212	0.212	0.194	0.249	0.415	0.413	0.35	0.451	0.351	0.452	0.499	0.439	0.284	0.35	0.367	0.371	0.325	0.311	0.471
LXF-289	0.579	0.624	0.513	0.555	0.509	0.885	0.978	0.904	0.88	0.888	0.291	0.199	0.151	0.197	0.178	0.909	0.831	0.817	0.987	0.934
NCI-H23	0.334	0.268	0.216	0.312	0.344	0.486	0.33	0.288	0.398	0.359	0.406	0.371	0.386	0.391	0.484	0.373	0.31	0.432	0.369	0.35
NCI-H322M	0.445	0.445	0.352	0.429	0.397	0.914	0.753	0.775	0.795	0.704	0.243	0.245	0.245	0.243	0.244	0.77	0.601	0.712	0.654	0.713
NCI-H358	0.257	0.241	0.213	0.257	0.213	0.528	0.592	0.509	0.542	0.429	0.115	0.138	0.133	0.0942	0.114	0.431	0.434	0.388	0.417	0.47
NCI-H441	0.272	0.358	0.296	0.282	0.331	0.881	0.65	0.606	0.766	0.723	0.55	0.501	0.431	0.504	0.47	0.701	0.789	0.55	0.669	0.589
NCI-H460	0.305	0.441	0.27	0.299	0.319	0.783	0.738	0.808	0.845	0.872	0.38	0.38	0.323	0.203	0.298	0.621	0.617	0.486	0.625	0.372
NCI-H520	0.186	0.197	0.204	0.185	0.165	0.478	0.398	0.426	0.354	0.353	0.118	0.143	0.176	0.144	0.176	0.455	0.373	0.439	0.394	0.387
NCI-H596	0.313	0.337	0.348	0.354	0.333	0.677	0.65	0.631	0.619	0.683	0.395	0.428	0.392	0.462	0.482	0.505	0.741	0.414	0.421	0.419
NCI-H647	0.261	0.299	0.215	0.213	0.256	0.582	0.771	0.596	0.582	0.709	0.15	0.198	0.184	0.145	0.157	0.309	0.165	0.132	0.189	0.24
NCI-H650	0.688		0.498	0.569	0.505	0.672		0.582	0.588	0.428	0.363		0.357	0.361	0.307	0.324	0.212	0.293	0.212	0.254
NCI-H661	0.301	0.253	0.235	0.305	0.296	1.1	1.07	0.977	0.837	0.814	0.694	0.56	0.575	0.615	0.472	0.607	0.687	0.671	0.678	0.555
